Several values for one entry are separate records, joined by “and”; a condition that tells them apart may be missing. Equal entries are not always repeated. Inconclusive results and toxic doses are left out. The calls were made as follows: active = survival T/C of 150% or more; inactive = T/C below 125% in these data.
System: BDF1 mice, B16 melanoma ip, median survival T/C
Experiment: NCI In Vivo Anticancer Drug Screen. Data for tumor model B16 Melanoma (intraperitoneal) in B6D2F1 (BDF1) mice
Conditions: endpoint: median survival time, higher = longer survival
How it was run: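 The ratio T/C compares compound-treated mice with vehicle-treated controls, using survival or tumor size as the endpoint in a transplantable tumor model.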

[1] = dose: 3.12 mg/kg/injection, schedule: Q01DX009 (ip), vehicle: Klucel (hydroxypropylcellulose) (HPC)
[2] = dose: 6.25 mg/kg/injection, schedule: Q01DX009 (ip), vehicle: Klucel (hydroxypropylcellulose) (HPC)
[3] = dose: 12.5 mg/kg/injection, schedule: Q01DX009 (ip), vehicle: Klucel (hydroxypropylcellulose) (HPC)
[4] = dose: 50.0 mg/kg/injection, schedule: Q01DX009 (ip), vehicle: Klucel (hydroxypropylcellulose) (HPC)
[5] = dose: 100.0 mg/kg/injection, schedule: Q01DX009 (ip), vehicle: Klucel (hydroxypropylcellulose) (HPC)
[6] = dose: 200.0 mg/kg/injection, schedule: Q01DX009 (ip), vehicle: Klucel (hydroxypropylcellulose) (HPC)

Measured: T/C

CN1C(=O)CCS(=O)(=O)C1c1ccc(Cl)c(Cl)c1 (stereo not given)
inactive: dose: 0.39 mg/kg/injection, schedule: Q01DX009 (ip), vehicle: Klucel (hydroxypropylcellulose) (HPC) 103 % of control | dose: 0.78 mg/kg/injection, schedule: Q01DX009 (ip), vehicle: Klucel (hydroxypropylcellulose) (HPC) 87 % of control | dose: 1.56 mg/kg/injection, schedule: Q01DX009 (ip), vehicle: Klucel (hydroxypropylcellulose) (HPC) 109 % of control and 116 % of control | [1] 111 % of control and 118 % of control | [2] 103 % of control and 111 % of control | [3] 97 % of control | [4] 90 % of control

NCCc1c[nH]c2ccccc12
inactive: dose: 100.0 mg/kg/injection, schedule: Q04DX003 (ip), vehicle: saline 120 % of control | dose: 200.0 mg/kg/injection, schedule: Q04DX003 (ip), vehicle: saline 112 % of control

C=C(Cl)CC1(C(=O)OCC)CCN(S(=O)(=O)c2ccc(C)cc2)c2ccccc2C1=O (stereo not given)
inactive: dose: 100.0 mg/kg/injection, schedule: Q04DX003 (ip), vehicle: Klucel (hydroxypropylcellulose) (HPC) 97 % of control | dose: 200.0 mg/kg/injection, schedule: Q04DX003 (ip), vehicle: Klucel (hydroxypropylcellulose) (HPC) 107 % of control | dose: 400.0 mg/kg/injection, schedule: Q04DX003 (ip), vehicle: Klucel (hydroxypropylcellulose) (HPC) 93 % of control

NNS(=O)(=O)c1ccc(OCC(=O)O)cc1
inactive: [5] 98 % of control | [6] 97 % of control | dose: 400.0 mg/kg/injection, schedule: Q01DX009 (ip), vehicle: Klucel (hydroxypropylcellulose) (HPC) 93 % of control

CN1CCN(C2=C(Cl)C(=O)c3ccccc3C2=O)CC1
inactive: dose: 1.25 mg/kg/injection, schedule: Q01DX009 (ip), vehicle: saline 95 % of control | dose: 2.5 mg/kg/injection, schedule: Q01DX009 (ip), vehicle: saline 88 % of control

NC1=NC(=O)N2CC12 (stereo not given)
inactive: dose: 12.5 mg/kg/injection, schedule: Q01DX009 (ip), vehicle: saline 100 % of control | dose: 25.0 mg/kg/injection, schedule: Q01DX009 (ip), vehicle: saline 103 % of control | dose: 50.0 mg/kg/injection, schedule: Q01DX009 (ip), vehicle: saline 105 % of control | dose: 100.0 mg/kg/injection, schedule: Q01DX009 (ip), vehicle: saline 103 % of control

CNC(=O)CCCCC(=O)NC
inactive: dose: 50.0 mg/kg/injection, schedule: Q01DX009 (ip), vehicle: saline with Tween-80 102 % of control | dose: 100.0 mg/kg/injection, schedule: Q01DX009 (ip), vehicle: saline with Tween-80 116 % of control | dose: 200.0 mg/kg/injection, schedule: Q01DX009 (ip), vehicle: saline with Tween-80 124 % of control | dose: 400.0 mg/kg/injection, schedule: Q01DX009 (ip), vehicle: saline with Tween-80 115 % of control

CCOC(=O)CCC(NC(=O)c1ccc(NCc2ccc3nc(N)nc(N)c3c2C)cc1)C(=O)OCC (stereo not given)
inactive: dose: 0.01 mg/kg/injection, schedule: Q01DX009 (ip), vehicle: saline + alcohol 108 % of control | dose: 0.02 mg/kg/injection, schedule: Q01DX009 (ip), vehicle: saline + alcohol 102 % of control | dose: 0.03 mg/kg/injection, schedule: Q01DX009 (ip), vehicle: saline + alcohol 105 % of control | dose: 0.06 mg/kg/injection, schedule: Q01DX009 (ip), vehicle: saline + alcohol 93 % of control | dose: 0.11 mg/kg/injection, schedule: Q01DX009 (ip), vehicle: saline + alcohol 91 % of control

COc1cc([C@@H]2c3cc4c(cc3[C@H](O)[C@H]3COC(=O)[C@H]23)OCO4)cc(OC)c1OC
inactive: dose: 2.0 mg/kg/injection, schedule: Q01DX009 (ip), vehicle: saline 102 % of control | dose: 4.0 mg/kg/injection, schedule: Q01DX009 (ip), vehicle: saline 109 % of control | dose: 8.0 mg/kg/injection, schedule: Q01DX009 (ip), vehicle: saline 104 % of control

O=S(=O)(O)CNc1cc(Cl)cc(Cl)c1
inactive: [5] 108 % of control | [6] 94 % of control

Clc1ccc(C[P+](c2ccccc2)(c2ccccc2)c2ccccc2)cc1Cl
inactive: [1] 103 % of control | [2] 101 % of control | [3] 107 % of control

Cc1ccc([N+](=O)[O-])cc1NC(=O)Oc1ccc(Cl)cc1
inactive: dose: 25.0 mg/kg/injection, schedule: Q04DX009 (ip), vehicle: Klucel (hydroxypropylcellulose) (HPC) 94 % of control | dose: 50.0 mg/kg/injection, schedule: Q04DX009 (ip), vehicle: Klucel (hydroxypropylcellulose) (HPC) 104 % of control | dose: 100.0 mg/kg/injection, schedule: Q04DX003 (ip), vehicle: carboxymethylcellulose (CMC) 93 % of control | dose: 100.0 mg/kg/injection, schedule: Q04DX009 (ip), vehicle: Klucel (hydroxypropylcellulose) (HPC) 96 % of control | dose: 400.0 mg/kg/injection, schedule: Q04DX003 (ip), vehicle: carboxymethylcellulose (CMC) 86 % of control

CC1CCC2N(C1)CC1C(C(O)C(O)C3(O)C1CC14OC5(O)C(O)CCC1(C)C5CC(O)C34)C2(C)O (stereo not given)
inactive: dose: 16.25 mg/kg/injection, schedule: Q01DX009 (ip), vehicle: saline 100 % of control | dose: 37.5 mg/kg/injection, schedule: Q01DX009 (ip), vehicle: saline 102 % of control | dose: 65.0 mg/kg/injection, schedule: Q01DX009 (ip), vehicle: saline 100 % of control | dose: 130.0 mg/kg/injection, schedule: Q01DX009 (ip), vehicle: saline 104 % of control

Cc1cc(N)c2cc(NC(=O)CCCCCCCCC(=O)Nc3ccc4nc(C)cc(N)c4c3)ccc2n1
inactive: [1] 89 % of control | [2] 87 % of control and 91 % of control | [3] 100 % of control | dose: 25.0 mg/kg/injection, schedule: Q01DX009 (ip), vehicle: Klucel (hydroxypropylcellulose) (HPC) 95 % of control and 107 % of control | [4] 95 % of control and 99 % of control

O=C(O)/C(=C\c1ccc(Cl)cc1)c1ccc(Cl)cc1
inactive: dose: 37.5 mg/kg/injection, schedule: Q01DX009 (ip), vehicle: Klucel (hydroxypropylcellulose) (HPC) 87 % of control | dose: 75.0 mg/kg/injection, schedule: Q01DX009 (ip), vehicle: Klucel (hydroxypropylcellulose) (HPC) 92 % of control | dose: 150.0 mg/kg/injection, schedule: Q01DX009 (ip), vehicle: Klucel (hydroxypropylcellulose) (HPC) 93 % of control

— PubChem BioAssay AID192 (DTP/NCI, 2004)
